pIC50: −log10 of the molar value.
What was measured:
[1] = tested on: HCT-116 MTAP(−/−)deleted cells; assay: Inhibitory activity of compounds on the proliferation of HCT-116 MTAP(−/−)deleted cells; assay type: cell-based; conditions: Cell-Titer Glo, 8 d, 0-10,000 nM, 3-fold dilution, 10 points, 0.1% DMSO
Source text: Test case 1: Inhibitory activity of compounds on the proliferation of HCT-116 MTAP(−/−)deleted cells Materials and cells: HCT-116 MTAP(−/−)deleted cells were purchased from Botron Healthcare (China); RPMI-1640 medium, fetal bovine serum and penicillin-streptomycin were purchased from Thermo Fisher (United States); 384-well plates were purchased from PerkinElmer (United States); Cell-Titer Glo kit was purchased from Promega (United States).
Cell culture: HCT116 MTAP(−/−)deleted cells were cultured with RPMI 1640 medium containing 10% fetal bovine serum +1% penicillin-streptomycin at 37 °C in 5% CO2. Only cells in the logarithmic growth phase could be used for the test.
Test of inhibitory activity on cell proliferation: The Cell-Titer Glo kit was used to test the proliferation inhibitory activity of the compounds on HCT-116 MTAP(−/−)deleted cells. The cell concentration was adjusted, It was inoculated at 40 μL per well into a 384-well plate and incubated overnight at 37 °C in 5% CO2. 40 μL of the compound was added to each well to reach a final concentration of 0-10,000 nM (starting concentration 10,000 nM, 3-fold dilution, 10 points), and the cell plate with 0.1% DMSO content was incubated at 37 °C and 5% CO2 for 8 d. 40 μL of Cell-Titer Glo reagent was added to test cell viability.

[2] = tested on: HCT-116 wild-type cells; assay: Proliferation inhibitory activity of compound on HCT-116 Wild Type cells; assay type: cell-based; conditions: Cell-Titer Glo, 8 d, 0-10,000 nM, 2-fold dilution, 10 points, 0.1% DMSO
Description: Test case 2: Test on proliferation inhibitory activity of compound on HCT-116 Wild Type cells Materials and cells: HCT-116 wild-type cells were purchased from Botron Healthcare (China); RPMI-1640 medium, fetal bovine serum and penicillin-streptomycin were purchased from Thermo Fisher (United States); 384-well plates were purchased from PerkinElmer (United States); Cell-Titer Glo kit was purchased from Promega (United States).
Cell culture: HCT-116 wild-type cells were cultured with a RPMI-1640 medium containing […]+1% penicillin-streptomycin at 37 °C in 5% CO2. Only cells in the logarithmic growth phase could be used for the test.
Test of cell proliferation activity: Cell-Titer Glo kit was used to test the proliferation inhibitory activity of the compound on HCT-116 wild-type cells. The cell concentration was adjusted, 40 μL per well was inoculated into a 384-well plate and incubated overnight at 37 °C in […]. 40 nL of the compound was added to each well to reach a final concentration of 0-10,000 nM (starting concentration 10,000 nM, 2-fold dilution, 10 points), and the cell plate with 0.1% DMSO content was incubated at 37 °C and […] for 8 d. 40 μL of Cell-Titer Glo reagent was added to test cell viability.

pIC50 ([1]; Homo sapiens, 192 h)	pIC50 ([2]; Homo sapiens, 192 h)	pIC50 [1]	pIC50 [2]	Compound
8.19	6.29			Nc1nc2cc(Cl)c(C(=O)N3CCOCC3c3ccc(C(F)(F)F)cc3)cc2n2cncc12 (stereo in doubt) [Example 4A, (3R)-3-[4-(trifluoromethyl)phenyl]morpholin-4-yl 4-amino-7-chloro(10-hydroimidazo[1,5-a]quinoxalin-8-yl)one]
5.56	5.19			Nc1nc2cc(Cl)c(C(=O)N3CCOCC3c3ccc(C(F)(F)F)cc3)cc2n2cncc12 (stereo in doubt) [Example 4B, (3S)-3-[4-(trifluoromethyl)phenyl]morpholin-4-yl 4-amino-7-chloro(10-hydroimidazo[1,5-a]quinoxalin-8-yl)one]
5.41	4.97			Nc1nc2ccc(C(=O)N3CCCC[C@@H]3c3ccc(F)cc3)cc2n2cccc12 [Example 1, (R)-(4-aminopyrrolo[1,2-a]quinoxalin-8-yl)(2-(4-fluorophenyl)piperidin-1-yl)methanone]
7.54	5.57			Nc1nc2cc(Cl)c(C(=O)N3CCCC[C@@H]3c3ccc(F)cc3)cc2n2cncc12 [Example 6, (2R)-2-(4-fluorophenyl)piperidyl4-amino-7-chloro(10-hydroimidazo[1,5-a]quinoxalin-8-yl)one]
7.61	5.77			Nc1nc2cc(F)c(C(=O)N3CCCC[C@@H]3c3ccc(F)cc3)cc2n2cncc12 [Example 7, (R)-(4-amino-7-fluoroimidazo[1,5-a]quinoxalin-8-yl)(2-(4-fluorophenyl)piperidin-1-yl)methanone]
6.40	< 5.00			Nc1nc2cc(F)c(C(=O)N3CCC(c4ccc(C(F)(F)F)cn4)C3)cc2n2cncc12 (centres unmarked) [Example 8, (4-amino-7-fluorimidazo[1,5-a]quinoxalin-8-yl)(3-(5-(trifluoromethyl)pyridin-2-yl)pyrrolidin-1-yl)methanone]
6.10	< 5.00			Nc1nc2cc(F)c(C(=O)N3CC(c4ccc(C(F)(F)F)cn4)C3)cc2n2cncc12 [Example 10]
8.49	7.04			C[C@@H]1COC[C@H](c2ccc(C(F)(F)F)cc2)N1C(=O)c1cc2c(cc1F)nc(N)c1cncn12 [Example 12, (4-amino-7-fluorimidazo[1,5-a]quinoxalin-8-yl)((3R,5S)-3-methyl-5-(4-(trifluoromethyl)phenyl)morpholinyl)methanone]
6.34	5.38			Nc1nc2cc(F)c(C(=O)N3CCCC(c4ccc(C(F)(F)F)cc4)C3)cc2n2cncc12 (centres unmarked) [Example 13, (4-amino-7-fluimidazo[1,5-a]quinoxalin-8-yl)(3-(4-(trifluoromethyl)phenyl)piperidin-1-yl)methanone]
6.29	< 5.00			Nc1nc2cc(F)c(C(=O)N3CCC[C@H](c4ccc(C(F)(F)F)cc4)C3)cc2n2cncc12 [Example 13A]
< 5.52	< 5.00			Nc1nc2cc(F)c(C(=O)N3CCC[C@@H](c4ccc(C(F)(F)F)cc4)C3)cc2n2cncc12 [Example 13B]
6.17	< 5.00			Nc1nc2ccc(C(=O)N3CCCC[C@@H]3c3ccc(F)cc3)cc2n2cncc12 [Example 14, (R)-(4-aminoimidazo[1,5-a]quinoxalin-8-yl)(2-(4-fluorophenyl)piperidin-1-yl)methanone]
6.03	< 5.00			Nc1nc2cc(F)c(C(=O)N3CCO[C@@H](c4ccc(C(F)(F)F)cc4)C3)cc2n2cncc12 [Example 15, (S)-(4-amino-7-fluoroimidazo[1,5-a]quinoxalin-8-yl)(2-(4-(trifluoromethyl)phenyl)morpholinyl)methanone]
5.89	< 5.00			Nc1nc2cc(F)c(C(=O)N3CCC[C@@H]3c3ccc(C(F)(F)F)cc3)cc2n2cncc12 [Example 16, (R)-(4-amino-7-fluorimidazo[1,5-a]quinoxalin-8-yl)(2-(4-(trifluoromethyl)phenyl)pyrrolidin-1-yl)methanone]
< 5.52	< 5.00			Nc1nc2cc(F)c(C(=O)N3CCC[C@H]3c3ccc(C(F)(F)F)cc3)cc2n2cncc12 [Example 17, (S)-(4-amino-7-fluorimidazo[1,5-a]quinoxalin-8-yl)(2-(4-(trifluoromethyl)phenyl)pyrrolidin-1-yl)methanone]
5.85	< 5.00			Nc1nc2ccc(C(=O)N3CCCCC3c3cnc4cccnc4c3)cc2n2cncc12 (centres unmarked) [Example 18]
6.33	5.19			Nc1nc2ccc(C(=O)N3CCCCC3c3ccc(Oc4ccc(F)cc4)cc3)cc2n2cncc12 (centres unmarked) [Example 19]
		7.09	< 5.00	Nc1nc2ccc(C(=O)N3CCCCC3c3ccc(C(F)(F)F)cn3)cc2n2cncc12 (centres unmarked) [Example 21]
		7.34	5.09	Nc1nc2ccc(C(=O)N3CCCCC3c3ccc(OC(F)(F)F)cc3)cc2n2cncc12 (centres unmarked) [Example 22, (4-aminoimidazo[1,5-a]quinoxalin-8-yl)2-(4-(trifluoromethoxy)phenyl)piperidin-1-yl ketone]
6.62	< 5.00			Nc1nc2ccc(C(=O)N3CCCCC3c3ccc4ccccc4n3)cc2n2cncc12 (centres unmarked) [Example 24]
		7.08	< 5.00	(4-amino-7-fluimidazo[1,5-a]quinoxalin-8-yl)2-(1-methylpyr azolo[3,4-b]pyridin-5-yl)piperidin-1-methanone [Example 20]

Compound	pIC50 ([1]; Homo sapiens, 192 h)	pIC50 ([2]; Homo sapiens, 192 h)	pIC50 [1]	pIC50 [2]
Cn1ncc2cc(C3CCCCN3C(=O)c3ccc4nc(N)c5cncn5c4c3)cnc21 (centres unmarked) [Example 23, (4-aminoimidazo[1,5-a]quinoxalin-8-yl) 2-(1-methylpyrazolo[3,4-b]pyridin-5-yl)piperidin-1-methanone]			6.13	< 5.00

Source: US20260365654A1, “PRMT5 INHIBITOR AND USE THEREOF” (SHANGHAI APEIRON THERAPEUTICS COMPANY LIMITED, priority 2022, published 2026)
